Experimental data taken from ChEMBL document CHEMBL1151757, “Synthesis, radiosynthesis, and biological evaluation of fluorine-18-labeled 2beta-carbo(fluoroalkoxy)-3beta-(3'-((Z)-2-haloethenyl)phenyl)nortropanes: candidate radioligands for in vivo imaging of the serotonin transporter with positron emission tomography” (J Med Chem, 2008).

Columns and labels:
[1] = Ratio of drug uptake in pons to cerebellum in anesthetized cynomolgus monkey after 95 mins postinjection; assay type: ADME, organism-based, Macaca fascicularis; settings: in vivo
[2] = Ratio of drug uptake in medulla to cerebellum in anesthetized cynomolgus monkey after 0.5 mins postinjection; assay type: ADME, organism-based, Macaca fascicularis; settings: in vivo
[3] = Ratio of drug uptake in medulla to cerebellum in anesthetized cynomolgus monkey after 9.5 mins postinjection; assay type: ADME, organism-based, Macaca fascicularis; settings: in vivo
[4] = Ratio of drug uptake in medulla to cerebellum in anesthetized cynomolgus monkey after 12.5 mins postinjection; assay type: ADME, organism-based, Macaca fascicularis; settings: in vivo
[5] = Drug uptake in anesthetized cynomolgus monkey brain occipital lobe after 18.5 mins postinjection; assay type: ADME, organism-based, Macaca fascicularis; settings: in vivo
[6] = Drug uptake in anesthetized cynomolgus monkey brain occipital lobe after 65 mins postinjection; assay type: ADME, organism-based, Macaca fascicularis; settings: in vivo
[7] = Ratio of drug uptake in midbrain to cerebellum in anesthetized cynomolgus monkey after 215 mins postinjection; assay type: ADME, organism-based, Macaca fascicularis; settings: in vivo
[8] = Ratio of drug uptake in occipital lobe to cerebellum in anesthetized cynomolgus monkey after 95 mins postinjection; assay type: ADME, organism-based, Macaca fascicularis; settings: in vivo
Putamen [9] = assay: Drug uptake in anesthetized cynomolgus monkey brain putamen after 175 mins postinjection; assay type: ADME, organism-based, Macaca fascicularis; settings: in vivo
Putamen [10] = assay: Drug uptake in anesthetized cynomolgus monkey brain putamen after 235 mins postinjection; assay type: ADME, organism-based, Macaca fascicularis; settings: in vivo
[11] = Ratio of drug uptake in frontal lobe to cerebellum in anesthetized cynomolgus monkey after 35 mins postinjection; assay type: ADME, organism-based, Macaca fascicularis; settings: in vivo
Midbrain [12] = assay: Drug uptake in anesthetized cynomolgus monkey brain midbrain after 215 mins postinjection; assay type: ADME, organism-based, Macaca fascicularis; settings: in vivo
Pons [13] = assay: Drug uptake in anesthetized cynomolgus monkey brain pons after 0.5 mins postinjection; assay type: ADME, organism-based, Macaca fascicularis; settings: in vivo
Pons [14] = assay: Drug uptake in anesthetized cynomolgus monkey brain pons after 27.5 mins postinjection; assay type: ADME, organism-based, Macaca fascicularis; settings: in vivo
Pons [15] = assay: Drug uptake in anesthetized cynomolgus monkey brain pons after 35 mins postinjection; assay type: ADME, organism-based, Macaca fascicularis; settings: in vivo
Pons [16] = assay: Drug uptake in anesthetized cynomolgus monkey brain pons after 55 mins postinjection; assay type: ADME, organism-based, Macaca fascicularis; settings: in vivo
Pons [17] = assay: Drug uptake in anesthetized cynomolgus monkey brain pons after 65 mins postinjection; assay type: ADME, organism-based, Macaca fascicularis; settings: in vivo
[18] = Ratio of drug uptake in caudate to cerebellum in anesthetized cynomolgus monkey after 65 mins postinjection; assay type: ADME, organism-based, Macaca fascicularis; settings: in vivo
Pons [19] = assay: Drug uptake in anesthetized cynomolgus monkey brain pons after 125 mins postinjection; assay type: ADME, organism-based, Macaca fascicularis; settings: in vivo
Pons [20] = assay: Drug uptake in anesthetized cynomolgus monkey brain pons after 215 mins postinjection; assay type: ADME, organism-based, Macaca fascicularis; settings: in vivo
Medulla [21] = assay: Drug uptake in anesthetized cynomolgus monkey brain medulla after 45 mins postinjection; assay type: ADME, organism-based, Macaca fascicularis; settings: in vivo, 0.75 h
Medulla [22] = assay: Drug uptake in anesthetized cynomolgus monkey brain medulla after 55 mins postinjection; assay type: ADME, organism-based, Macaca fascicularis; settings: in vivo
Medulla [23] = assay: Drug uptake in anesthetized cynomolgus monkey brain medulla after 135 mins postinjection; assay type: ADME, organism-based, Macaca fascicularis; settings: in vivo, 2.25 h
Medulla [24] = assay: Drug uptake in anesthetized cynomolgus monkey brain medulla after 215 mins postinjection; assay type: ADME, organism-based, Macaca fascicularis; settings: in vivo
[25] = Drug uptake in anesthetized cynomolgus monkey brain cerebellum after 215 mins postinjection; assay type: ADME, organism-based, Macaca fascicularis; settings: in vivo
[26] = Ratio of drug uptake in thalamus to cerebellum in anesthetized cynomolgus monkey after 95 mins postinjection; assay type: ADME, organism-based, Macaca fascicularis; settings: in vivo
Caudate [27] = assay: Drug uptake in anesthetized cynomolgus monkey brain caudate after 9.5 mins postinjection; assay type: ADME, organism-based, Macaca fascicularis, Caudate nucleus; settings: in vivo
Caudate [28] = assay: Drug uptake in anesthetized cynomolgus monkey brain caudate after 15.5 mins postinjection; assay type: ADME, organism-based, Macaca fascicularis, Caudate nucleus; settings: in vivo
Caudate [29] = assay: Drug uptake in anesthetized cynomolgus monkey brain caudate after 18.5 mins postinjection; assay type: ADME, organism-based, Macaca fascicularis, Caudate nucleus; settings: in vivo
Caudate [30] = assay: Drug uptake in anesthetized cynomolgus monkey brain caudate after 45 mins postinjection; assay type: ADME, organism-based, Macaca fascicularis, Caudate nucleus; settings: in vivo, 0.75 h
Caudate [31] = assay: Drug uptake in anesthetized cynomolgus monkey brain caudate after 225 mins postinjection; assay type: ADME, organism-based, Macaca fascicularis, Caudate nucleus; settings: in vivo, 3.75 h
Caudate [32] = assay: Drug uptake in anesthetized cynomolgus monkey brain caudate after 235 mins postinjection; assay type: ADME, organism-based, Macaca fascicularis, Caudate nucleus; settings: in vivo
Putamen [33] = assay: Drug uptake in anesthetized cynomolgus monkey brain putamen after 3.5 mins postinjection; assay type: ADME, organism-based, Macaca fascicularis; settings: in vivo
Thalamus [34] = assay: Drug uptake in anesthetized cynomolgus monkey brain thalamus after 3.5 mins postinjection; assay type: ADME, organism-based, Macaca fascicularis; parameters: unit not given here; settings: in vivo
Thalamus [35] = assay: Drug uptake in anesthetized cynomolgus monkey brain thalamus after 27.5 mins postinjection; assay type: ADME, organism-based, Macaca fascicularis; parameters: unit not given here; settings: in vivo
Thalamus [36] = assay: Drug uptake in anesthetized cynomolgus monkey brain thalamus after 35 mins postinjection; assay type: ADME, organism-based, Macaca fascicularis; parameters: unit not given here; settings: in vivo
Thalamus [37] = assay: Drug uptake in anesthetized cynomolgus monkey brain thalamus after 45 mins postinjection; assay type: ADME, organism-based, Macaca fascicularis; parameters: unit not given here; settings: in vivo, 0.75 h
Putamen [38] = assay: Drug uptake in anesthetized cynomolgus monkey brain putamen after 4.5 mins postinjection; assay type: ADME, organism-based, Macaca fascicularis; parameters: unit not given here; settings: in vivo, 0.075 h
Putamen [39] = assay: Drug uptake in anesthetized cynomolgus monkey brain putamen after 9.5 mins postinjection; assay type: ADME, organism-based, Macaca fascicularis; parameters: unit not given here; settings: in vivo
Putamen [40] = assay: Drug uptake in anesthetized cynomolgus monkey brain putamen after 105 mins postinjection; assay type: ADME, organism-based, Macaca fascicularis; parameters: unit not given here; settings: in vivo, 1.75 h
Thalamus [41] = assay: Drug uptake in anesthetized cynomolgus monkey brain thalamus after 235 mins postinjection; assay type: ADME, organism-based, Macaca fascicularis; parameters: unit not given here; settings: in vivo
Midbrain [42] = assay: Drug uptake in anesthetized cynomolgus monkey brain midbrain after 45 mins postinjection; assay type: ADME, organism-based, Macaca fascicularis; parameters: unit not given here; settings: in vivo, 0.75 h
Midbrain [43] = assay: Drug uptake in anesthetized cynomolgus monkey brain midbrain after 75 mins postinjection; assay type: ADME, organism-based, Macaca fascicularis; parameters: unit not given here; settings: in vivo, 1.25 h
Midbrain [44] = assay: Drug uptake in anesthetized cynomolgus monkey brain midbrain after 85 mins postinjection; assay type: ADME, organism-based, Macaca fascicularis; parameters: unit not given here; settings: in vivo
[45] = Ratio of drug uptake in midbrain to cerebellum in anesthetized cynomolgus monkey after 125 mins postinjection; assay type: ADME, organism-based, Macaca fascicularis; settings: in vivo

O=C(OCC[18F])C1C2CCC(CC1c1cccc(/C=C\I)c1)N2 (stereo not given)
Ratio [1]: 1.2
Ratio [2]: 1.6
Ratio [3]: 0.9
Ratio [4]: 0.9
Drug uptake [5]: 2.84
Drug uptake [6]: 2.86
Ratio [7]: 2.2
Ratio [8]: 0.9
Drug uptake (Putamen [9]): 2.93
Drug uptake (Putamen [10]): 2.35
Ratio [11]: 0.7
Drug uptake (Midbrain [12]): 3.12
Drug uptake (Pons [13]): 0
Drug uptake (Pons [14]): 3.21
Drug uptake (Pons [15]): 3.29
Drug uptake (Pons [16]): 3.27
Drug uptake (Pons [17]): 3.2
Ratio [18]: 1.1
Drug uptake (Pons [19]): 2.76
Drug uptake (Pons [20]): 2.08
Drug uptake (Medulla [21]): 4
Drug uptake (Medulla [22]): 3.96
Drug uptake (Medulla [23]): 3.24
Drug uptake (Medulla [24]): 2.43
Drug uptake [25]: 1.4
Ratio [26]: 1.5
Drug uptake (Caudate [27]): 2.5
Drug uptake (Caudate [28]): 2.94
Drug uptake (Caudate [29]): 3.07
Drug uptake (Caudate [30]): 3.67
Drug uptake (Caudate [31]): 2.02
Drug uptake (Caudate [32]): 1.99
Drug uptake (Putamen [33]): 0.96
Drug uptake (Thalamus [34]): 0.96
Drug uptake (Thalamus [35]): 4.02
Drug uptake (Thalamus [36]): 4.2
Drug uptake (Thalamus [37]): 4.3
Drug uptake (Putamen [38]): 1.53
Drug uptake (Putamen [39]): 3.07
Drug uptake (Putamen [40]): 3.88
Drug uptake (Thalamus [41]): 2.2
Drug uptake (Midbrain [42]): 4.9
Drug uptake (Midbrain [43]): 4.76
Drug uptake (Midbrain [44]): 4.67
Ratio [45]: 2
